Reference: patent publication US20130217132A1, “METHODS, COMPOSITIONS AND USE FOR ENHANCING CHEMICAL TOLERANCE BY MICROORGANISMS” (priority 2009, published 2013)
Like-named read-outs stand apart in the source and are kept apart here.

Legend:
membrane integrity = settings: cited from earlier work
[1] = test system: BW25113 ArecA cells overexpressing lpcA gene (pLPCA); assay type: cell-based, E. coli; settings: for OD600 at 24 hr: pLPCA cells
Method: (§1) FIGS. 17A-17B represent methods of identification of a gene related to restoring tolerance. Multiple genome-wide SCALE selection was performed in the presence of ethanol, furfural and acetate respectively. The data set obtained for each compound was compared to the others. Alleles enriched in all cases were identified. […] To restore tolerance, overexpression of identified genes in bacterial cells was performed. For example, lpcA ORF was cloned into the pBTL-1 vector. BW25113 ArecA cells transformed with the blank pBTL-1 vector were used as a control. BW25113 ArecA cells overexpressing lpcA gene were referred to as pLPCA. Cells were inoculated at a standard cell density into MOPS minimal media, supplemented with furfural, acetate or ethanol. After 24 hours, growth of the cells was analyzed.
(§2) The indicated cells were grown in MOPS minimal media supplemented with glucose as a carbon source. Furfural was added to the media at the concentration of 1 g/L. Arabinose was added at 10 mM where indicated to gauge effect of AraC binding. The BW25113 araC::FRT-kan clone corresponds to JW0063, a BW25113 araC knockout mutant ordered from the Keio Collection directly. pBTL-1 represented the blank vector, and pLPCA referred to lpcA gene overexpression. […] To analyze the LPS level in the cells indicated in FIG. 19, LPS are extracted from the cells grown to exponential phase. Loading of LPS for the protein gel is normalized to the cell number. The gel is stained to visualize LPS protein bands after desired separation is obtained.
(§3) BW25113, MG1655, and derivatives were used where indicated. JW0063, an araC mutant of BW25113 was obtained from the Coli Genetic Stock Center (Yale). Overnight bacterial cultures were grown in Luria-Bertani medium with shaking. MOPS minimal medium (previously presented) with 0.2% glucose as a carbon source, was used for all seed cultures and growth studies. Seed cultures were inoculated at 2 v/v % from an overnight culture and were grown to mid-exponential phase. Growth cultures were inoculated with 10 v/v % seed cultures of an OD600 of 0.195-0.200 for an initial optical density of ˜0.02. Carbenicillin and kanamycin were used where appropriate at 100 μg/ml and 30 μg/ml, respectively. The pBTL-1 vector (previously described) was used as the control blank vector for all growth studies. Genome-wide furfural selection

[2] = test system: BW25113 ArecA cells transformed with the blank pBTL-1 vector; assay type: cell-based, E. coli; settings: control cells
Method: as §1, §2, §3

[3] = furfural vs. furfuryl alcohol; cited from earlier work
E. coli LY01 = settings: starting pH of 6.0, acid at the IC50 obtained at a neutral pH; cited from earlier work
[4] = test system: pBTL-1 Control (blank vector) culture; experiment: Aerobic growth (specific growth, final OD600) in MOPS minimal media with inhibitor, control; assay type: cell-based, E. coli; settings: for Specific Growth: n=3
Method: (§4) Certain experiments described herein were performed in E. coli BW25113 recA-, with the kanamycin resistance gene removed.
(§5) Cultures were grown in 10 ml MOPS minimal media, 100 μg carbenicillin/ml, and either 1 g furfural/1 supplemented, 2 g HMF/1, or 4 g acetate/1, in 15 ml conical tubes at 37° C. The optical density of 1 ml culture was measured with a spectrophotometer at 600 nm. A natural log transformation of the data was then calculated and then a regression line was fit to the data to calculate specific growth, which is […] to the culture doubling time. The blank vector, pBTL-1, served as the control. The lpcA gene was cloned into the pBTL-1 using standard cloning techniques and primers designed to amplify the gene from template DNA.

pBTL-1 lpcA culture = assay type: cell-based, E. coli; settings: for Specific Growth: n=3
Method: as §4, §5

cell growth = settings: concentrations as low as, cited from earlier work
E. coli MC1022 = settings: cited from earlier work
bacterial cultures = settings: amino acid 10 mM, acetic acid 2.5 g/L, MOPS minimal medium, FIG. 4
Method: In another exemplary method, amino acid supplementation of cultures was observed and illustrated by histogram plot. Overnight cultures were prepared from freezer stocks. Stationary phase overnight cultures were used for a 2.5% inoculation of 5 mL MOPS minimal medium plus carbenicillin. The OD600 was monitored until the culture reached an OD600=0.2. […] Amino acid supplementation was done by preparing stock solutions of amino acids and supplementing the media to a final concentration of 10 mM. Cultures were incubated at 37° C. and were shaken at 225 rpm. OD600 was monitored over the course of exponential growth and final measurements were taken after 24 hours. Specific growth rate was calculated by linear regression on the natural logarithm of the exponential phase OD600 over time.

E. coli = settings: cited from earlier work
[5] = aerobic growth in 4 g/L acetate
[6] = aerobic growth in 2 g/L hydroxymethyl furfural

## O=C(O)c1ccco1 [2-furoic acid]
Membrane integrity
  membrane leakage: significant membrane leakage

## CCO [ethanol]
[1]; ethanol 25 g/l
  improvement of final optical density by pLPCA in BW25113: 37±3%
[1]; 25 g/L of ethanol
  OD600 at 24 hr: 1.0
[2]; 25 g/L of ethanol
  OD600 at 24 hr: 0.4

## OCc1ccco1 [furfuryl alcohol]
Membrane integrity
  membrane leakage: significant membrane leakage
[3]
  toxicity on a concentration basis: ~20 g/L

## CC(=O)CCC(=O)O [levulinic acid]
E. coli LY01
  growth rate, percent that of control growth: 10%

## O=CO [formic acid]
E. coli LY01
  growth rate, percent that of control growth: 35%

## CC(=O)O [acetate, acetic acid]
E. coli LY01
  growth rate, percent that of control growth: 0%
[4]; [5]
  Final OD600 (24 hr): 0.111
  Specific Growth: 0.067 h⁻¹
[1]; acetate 5 g/l
  improvement of final optical density by pLPCA in BW25113: 47±4%
[1]; 10 g/L of acetate
  OD600 at 24 hr: 1.4
[2]; 10 g/L of acetate
  OD600 at 24 hr: 0.75
pBTL-1 lpcA culture; [5]
  Final OD600 (24 hr): 0.324
  Specific Growth: 0.126 h⁻¹
Cell growth
  concentration that retards growth: 0.5 g/L
Cell growth; minimal media
  acetate concentration shown to inhibit cell growth by 50%: 0.5 g/L

## COc1cc(C=O)ccc1O [vanillin, 4-hydroxy-3-methoxybenzaldehyde]
E. coli MC1022; treatment for one hour at over three times the minimum inhibitory concentration
  share of the population with membrane destabilization: 29%
E. coli MC1022; when grown overnight after treatment
  share of the population with membrane destabilization: 13%

## O=Cc1ccc(CO)o1 [hydroxymethyl furfural, 5-(hydroxymethyl)-2-furaldehyde]
[4]; [6]
  Final OD600 (24 hr): 0.170
  Specific Growth: 0.045 h⁻¹
pBTL-1 lpcA culture; [6]
  Final OD600 (24 hr): 1.014
  Specific Growth: 0.234 h⁻¹

## N=C(N)NCCC[C@H](N)C(=O)O [arginine]
Bacterial cultures
  effect of amino acid supplementation on growth rate: greatest increase in growth rate

## CC(=O)C=O [Methylgloxal]
E. coli
  concentration inhibiting E. coli growth and protein synthesis: 0.07 g/L

## CSCC[C@H](N)C(=O)O [methionine]
Bacterial cultures
  effect of amino acid supplementation on growth rate: greatest increase in growth rate
